Experimental data as given in publication PMC10290335 (Malaria Journal, 2023).

What was measured:
[1] = Clinical pharmacokinetics of ivermectin metabolites in blood of healthy volunteers; type: in vivo, human; conditions: for Tmax: single oral 12 mg ivermectin
Description: Peripheral venous blood samples were collected before dosing and after 1, 2, 4, 6, 8, 12, 24, 48 and 72 h. Blood samples (50 µL) were extracted by the addition of 150 µL ISTD solution. Samples were mixed for 1 min and centrifuged for 30 min at 3220×g and 15 °C (5810 R centrifuge). Twenty microlitres of supernatant were injected into the LC–MS/MS system to determine the signal intensity of the metabolites.
The different LC–MS/MS settings were applied for the metabolism, pharmacokinetic and metabolite fractioning assays (Additional file 1: Table S1, S2, S3). All analyses were performed on a modular HPLC (Shimadzu, Kyoto, Japan) composed of four pumps (2 × LC-30AD, 2 × LC-20AD), an autosampler (SIL 30-AC MP), a system controller (CBM-20A), two degassing units (DGU-20A5 and DGU-20A3R), a column oven (CTO-20AC), a low-pressure valve (FCV-12AH), and a fraction collector (FRC-12A). The HPLC system was connected to an API 5000 triple quadrupole mass spectrometer (AB Sciex, Ontario, Canada) that was equipped with a turbo electrospray ionization source. The system was operated with Analyst Software 1.7 (AB Sciex) and acquired data were analysed using MultiQuant Software 3.0.3 (AB Sciex).
The integral method “linear up log down” was used on area/internal standard area ratio.
In total, three T0 blank blood samples originating from different PK study participants were used to resuspend the metabolites (Additional file 1: Table S5). The signal intensity was recorded for every metabolite by extracting the 50 µL blood with 150 µL of ISTD solution. The metabolite peak area was determined by LC–MS/MS (see section LC-MS/MS analysis of ivermectin). Moreover, the PK samples of all study participants were equally extracted and analysed to derive the maximal blood level (Cmax) from the blood level-time curves. Afterwards, the mean metabolite peak area of the spiked blank blood was compared with the mean peak area of the Cmax samples (Additional file 1: Table S5). The amount of each metabolite fraction was either reduced or increased to match the peak area of Cmax samples. If the metabolite was not detectable in PK samples, the amount of metabolite was adjusted to the lower limit of detection of the method. In this case, blank blood was spiked with the metabolite fraction to receive a signal intensity that is three times larger than the corresponding noise level.

[2] = test system: Anopheles stephensi mosquitoes; experiment: Anopheles stephensi membrane feeding screening assay (survival and activity); type: in vivo; conditions: for Average activity score: score +2 flying, +1 moving, 0 dead
Description: The final DMSO content in blood was 0.1%, which was also the DMSO concentration used for the negative control assays (0.1% DMSO in blank blood). Inclusion of blank fractions as additional negative controls were not considered, because it would not have been feasible to also test the corresponding blank fraction for each metabolite fraction (F1–F9). The blood preparations were rotated at room temperature for 20 min to ensure a uniform metabolite distribution (Rotator Genie, Scientific Industries, Bohemia, USA). The dissolution of the metabolites was confirmed by LC–MS/MS.
Around 50–70 female mosquitoes aged 5–10 days post-emergence were transferred with a mouth aspirator into 20 mL paper cups. A piece of mosquito netting was used to cover the cups. Mosquitoes were starved for 24 h before treatment. The mosquito blood meals were heated in a water bath (SAHARA PPO S5P Heated Bath Circulators, Thermo Fisher Scientific, New Hampshire, USA) for 20 min at 39 °C. A Petri dish (35 mm × 10 mm, BD, Franklin Lakes, USA) was filled with 3 mL of warm blood, sealed with a piece of sealing film (Parafilm®, Huberlab AG, Aesch, Switzerland). The Petri dish was placed upside down on top of the net sealing the paper cup. Female mosquitoes were allowed to feed for 20 min on the blood through the net and the sealing film. The feeding was conducted in a climate chamber (HPP110, Memmert GmbH + Co.KG, Schwabach, Germany) at 27 °C, 70% humidity, and 30% light intensity. After feeding, the cups were put on ice to immobilise the mosquitoes and only the fully engorged mosquitoes were selected for the assay. The mosquitoes were returned to the climate chamber to assess their activity and survival for 3 days.
In the framework of screening assays, mosquitoes were treated with blood containing each metabolite corresponding to Cmax levels observed in PK samples. […] In screening assays, eleven treatments were evaluated with three replicates using three batches of 50–70 mosquitoes.

[3] = mean of PK subjects 1-12, 50 µL blood
[4] = whole blood, 12 subjects, mean ± SE
[5] = whole blood, 12 subjects, 12 mg ivermectin, NCA, mean ± SE

Row | Compound | Observed Cmax, peak area ([1]; PK subject 1, 50 µL blood) [counts] | Observed Cmax, peak area ([1]; PK subject 2, 50 µL blood) [counts] | Observed Cmax, peak area ([1]; PK subject 3, 50 µL blood) [counts] | Observed Cmax, peak area ([1]; PK subject 4, 50 µL blood) [counts] | Observed Cmax, peak area ([1]; PK subject 5, 50 µL blood) [counts] | Observed Cmax, peak area ([1]; PK subject 6, 50 µL blood) [counts] | Observed Cmax, peak area ([1]; PK subject 7, 50 µL blood) [counts] | Observed Cmax, peak area ([1]; PK subject 8, 50 µL blood) [counts] | Observed Cmax, peak area ([1]; PK subject 9, 50 µL blood) [counts] | Observed Cmax, peak area ([1]; PK subject 10, 50 µL blood) [counts] | Observed Cmax, peak area ([1]; PK subject 11, 50 µL blood) [counts] | Observed Cmax, peak area ([1]; PK subject 12, 50 µL blood) [counts] | Observed Cmax, peak area [1, 3] [counts] | Tmax [1, 4] [h] | Average activity score ([2]; 0 h post feeding) | Average activity score ([2]; 24 h post feeding) | Average activity score ([2]; 48 h post feeding) | Average activity score ([2]; 72 h post feeding) | other results
1 | 26-hydroxy-H2B1a monosaccharide [M7] | 1.31E+03 | 7.70E+02 | 9.70E+02 | 7.68E+02 | 8.12E+02 | 1.39E+03 | 1.26E+03 | 1.09E+03 | 7.88E+02 | 9.63E+02 | 1.21E+03 | 9.57E+02 | 1.02E+03 | 6.1 ± 0.4 | 2.00 | 1.85 | 1.80 | 1.69 | 
2 | CCC(C)C1OC2(CCC1C)CC1CC(CC=C(C)C(OC3CC(OC)C(OC4CC(O)C(O)C(C)O4)C(C)O3)C(C)C=CC=C3COC4C(O)C(CO)=CC(C(=O)O1)C34O)O2 (stereo not drawn) [M4, 3″-O-desmethyl, 4-hydroxy-H2B1a] | 6.13E+03 | 4.65E+03 | 5.03E+03 | 4.08E+03 | 2.43E+03 | 7.98E+03 | 4.09E+03 | 5.21E+03 | 4.12E+03 | 5.38E+03 | 5.67E+03 | 5.92E+03 | 5.06E+03 | 6.0 ± 0.2 | 2.00 | 1.84 | 1.30 | 0.57 | Cmax [ratio] ([1]; area/internal standard area ratio, whole blood, 12 subjects, 12 mg ivermectin, NCA, mean ± SE): 0.004 ± 0.0004 ratio; Half-life [1, 5]: 57.5 ± 13.2 h; MRTlast [1, 5]: 29.4 ± 1.7 h; activity against An. stephensi ([2]; at Cmax levels observed in clinical PK samples): minor mosquitocidal properties; mean survival of mosquitoes after blood meal ([2]; blood meal at Cmax level): decreased; mosquito survival ([2]; blood meal at Cmax level, observation period of 3 days): 35%
3 | CC[C@H](C)[C@H]1O[C@]2(CC[C@@H]1CO)C[C@@H]1C[C@@H](C/C=C(\C)[C@@H](O[C@H]3C[C@H](OC)[C@@H](O)[C@H](C)O3)[C@@H](C)/C=C/C=C3\CO[C@@H]4[C@H](O)C(C)=C[C@@H](C(=O)O1)[C@]34O)O2 [M5, 24-hydroxy-H2B1a monosaccharide] | 7.86E+02 | 5.85E+02 | 1.01E+03 | 7.22E+02 | 6.06E+02 | 1.25E+03 | 8.58E+02 | 6.84E+02 | 6.59E+02 | 7.23E+02 | 8.95E+02 | 7.29E+02 | 7.92E+02 | 6.4 ± 0.4 | 2.00 | 1.90 | 1.86 | 1.81 | 
